Measurements reported in patent US4016158A, “Cephalosporin derivatives” (Roussel-UCLAF, priority 1971, dated 1977).

Experiments:
Staphylococcus aureus = test: in vivo antibacterial activity, experimental staphylococcia in mice, oral
Protocol: The in vivo antibacterial activity for product A was determined in mice with an experimental staphylococcia. 50 male mice weighing 20 to 23 g were divided into 5 groups of 10 mice each and all were infected interperitoneally with 0.5 ml of a 15 hour culture of Staphylococcus aureus in Pasteur nutritive broth diluted 1/3 with distilled water. Each mouse received product A orally 1 hour and 5 hours after the infection.

Shigella sonnei = test: bactericidal activity (germs still alive); assay type: cell-based; parameters: key to germs still alive: +++: all the germs are still alive; +: it remains some colonies; -: it does not remain any germ
Protocol: (§1) The bactericidal activity of product A was ascertained by determining the number of germs still alive after treatment with increasing doses of antibiotic on a liquid media. From the cultures in tubes having 72 hours (previously described method), were placed on agar in Petri dishes a constant sample of the last tube having grown and of the following tubes where no more growth in transillumination is observed. After 48 hours of culture in the Petri dishes, the number of colonies was ascertained.

[1] = tested on: Staphylococcus aureus 1098; test: bactericidal activity (germs still alive); assay type: cell-based; parameters: key to germs still alive: +++: all the germs are still alive; +: it remains some colonies; -: it does not remain any germ
Protocol: as §1

[2] = tested on: Staphylococcus aureus 54146; test: bactericidal activity (germs still alive); assay type: cell-based; parameters: key to germs still alive: +++: all the germs are still alive; +: it remains some colonies; -: it does not remain any germ
Protocol: as §1

[3] = tested on: Staphylococcus aureus 8514; test: bactericidal activity (germs still alive); assay type: cell-based; parameters: key to germs still alive: +++: all the germs are still alive; +: it remains some colonies; -: it does not remain any germ
Protocol: as §1

[4] = tested on: Staphylococcus aureus 9482; test: bactericidal activity (germs still alive); assay type: cell-based; parameters: key to germs still alive: +++: all the germs are still alive; +: it remains some colonies; -: it does not remain any germ
Protocol: as §1

solubility = assay type: physicochemical
[5] = transcutaneous toxicity in rats; settings: rat, in vivo, topical or ocular, male rats
[6] = 0.5 mg repeated two times, oral
[7] = 0.5 mg repeated two times, oral, 10 mice
[8] = 1.0 mg repeated two times, oral
[9] = 2.0 mg repeated two times, oral
[10] = 3.0 mg repeated two times, oral

## CC(C)C1=C(C(=O)O)N2C(=O)[C@@H](NC(=O)[C@H](N)c3ccccc3)[C@H]2SC1 [Example 9, L (+) cis 7-[D (-)-α-aminophenylacetamido]-3-isopropyl-3-cepheme-4-carboxylic acid]
Staphylococcus aureus; [6]
  Mice living on 8th day: 7/10
  Mice living on 8th day (%): 70%
Staphylococcus aureus; [7]
  Mortality at 10h: 1
  Mortality at 22h: 1
  Mortality at 70h: 1
Staphylococcus aureus; [8]
  Mice living on 8th day: 9/10
  Mice living on 8th day (%): 90%
Staphylococcus aureus; 1.0 mg repeated two times, oral, 10 mice
  Mortality at 70h: 1
Staphylococcus aureus; [9]
  Mice living on 8th day: 10/10
  Mice living on 8th day (%): 100%
Staphylococcus aureus; [10]
  Mice living on 8th day: 10/10
  Mice living on 8th day (%): 100%
Staphylococcus aureus; administered orally, 1 hour and 5 hours after infection
  antibacterial activity: good antibacterial activity
Shigella sonnei; 20 μg/ml
  germs still alive: +++
Shigella sonnei; 30 μg/ml
  germs still alive: +
Shigella sonnei; 40 μg/ml
  number of colonies: 9 colonies
Shigella sonnei; 60 μg/ml
  germs still alive: -
[1]; 1 μg/ml
  germs still alive: +++
[1]; 2 μg/ml
  germs still alive: +++
[1]; 3 μg/ml
  number of colonies: 1 colonies
[1]; 5 μg/ml
  germs still alive: -
[2]; 1 μg/ml
  germs still alive: +++
[2]; 2 μg/ml
  germs still alive: +
[2]; 3 μg/ml
  number of colonies: 3 colonies
[2]; 5 μg/ml
  germs still alive: -
[3]; 1 μg/ml
  germs still alive: +++
[3]; 2 μg/ml
  germs still alive: +++
[3]; 3 μg/ml
  number of colonies: a few
[3]; 5 μg/ml
  germs still alive: -
[4]; 1 μg/ml
  germs still alive: +++
[4]; 2 μg/ml
  number of colonies: 1 colonie
[4]; 3 μg/ml
  number of colonies: 2 colonies
[4]; 5 μg/ml
  germs still alive: -
solubility; ethanol
  solubility in ethanol: slightly soluble
solubility; ether
  solubility in ether: insoluble
[5]
  LD50 at 192 h: > 1600 mg/kg
